The subject of assay [1] is MRSA. The assay can be described thus: MIC by broth microdilution, MRSA isolates. The format is cell-based. The settings on record: for MIC: Staphylococcus aureus, MRSA. (Broth dilution looks for growth in wells or tubes with falling amounts of substance.)
The subject of assay [2] is E coli wild type. The assay can be described thus: MIC by broth microdilution, wild type E coli. The format is cell-based. The conditions noted are these: for MIC: Escherichia coli.
For assay [3], the system named is P aeruginosa. The assay can be described thus: MIC by broth microdilution, P aeruginosa isolates. The settings on record: for MIC: Pseudomonas aeruginosa. The format is cell-based, Pseudomonas aeruginosa.
Assay [4] deals with E coli carrying specific resistance determinants. The assay can be described thus: MIC by broth microdilution, E coli carrying specific resistance determinants. The format is cell-based. The conditions noted are these: for MIC: Escherichia coli.
Assay [5] deals with wild type bacterial ribosomes. The assay can be described thus: in-vitro translation assay, bacterial ribosomes. The format is biochemical. An excerpt:
(§1) The antiribosomal activity of these compounds was investigated with cell-free translation assays using both wild type bacterial ribosomes and hybrid ribosomes carrying eukaryotic decoding A sites enabling the prediction of selectivity.

The test system of assay [6] is A1555G mutant mitochondrial ribosome (human chimeric). The assay can be described thus: in-vitro translation assay, human chimeric ribosomes, A1555G mutant mitochondrial decoding site. The class given is biochemical. The settings on record: human mitochondrial decoding site with A1555G point mutation; read-out: IC50 Mitoch. A1555G.
From the text: as §1

In assay [7] the test system is cytosolic ribosome (human chimeric). The class given is biochemical.
From the text: as §1

The subject of assay [8] is mitochondrial ribosome (human chimeric). The format is biochemical.
From the text: as §1

Assay [9] deals with rabbit reticulocyte ribosomes. The assay can be described thus: in-vitro translation assay, rabbit reticulocyte ribosomes. The class given is biochemical. The conditions noted are these: mammalian cytosolic ribosomes (rabbit).
The subject of assay [10] is M. abscessus. The assay can be described thus: MIC by broth microdilution, M. abscessus. The conditions noted are these: Mycobacteroides abscessus. The format is cell-based.
Assay [11] has as its system Klebsiella pneumonia AG215. The assay can be described thus: MIC by broth microdilution, Klebsiella pneumonia. The conditions noted are these: Klebsiella pneumoniae; strain AG215 Klebsiella pneumonia; read-out: MIC AG215 K. pneumon. The format is cell-based.
Assay [12] concerns Acinetobacter baumannii pittii AG225. The assay can be described thus: MIC by broth microdilution, Acinetobacter baumannii. The class given is cell-based. The conditions noted are these: strain AG225 Acinetobacter baumannii pittii.
The subject of assay [13] is Enterobacter cloacae AG290. The assay can be described thus: MIC by broth microdilution, Enterobacter cloacae. The settings on record: strain AG290 Enterobacter cloacae; read-out: MIC AG290 E. cloacae. The class given is cell-based.
Assay [14] deals with M. smegmatis SZ380. The assay can be described thus: MIC by broth microdilution, M. smegmatis. The settings on record: Mycolicibacterium smegmatis.
[15] abbreviates: clinical isolate AG038, read-out: MIC AG038 MRSA.
[16] abbreviates: clinical isolate AG001, WT, read-out: MIC AG001 E. coli WT.
Setting [17] is: clinical isolate AG055, WT, read-out: MIC AG055 E. coli WT.
Where [18] appears, read: read-out: MIC AG003 E. coli AAC(3)-II.
The mark [19] stands for this setting: Mycobacterium smegmatis ribosomes, read-out: IC50 Bacterial.
[20] abbreviates: ribosomes with a human cytosolic decoding site, read-out: IC50 Cytosolic.
Where [21] appears, read: ribosomes with a human mitochondrial decoding site, read-out: IC50 Mitoch.

Molecules are shown by their SMILES. Values after ≈ are worked out from the molar mass of the structure shown. Like-named read-outs stand apart in the source and are kept apart here.

For orientation: MIC means the least concentration at which growth counts as inhibited. The IC50 is the concentration needed to halve the response being measured. Regarding `NCC1OC(OC2C(CO)OC(OC3C(O)C(N)CC(N)C3OC3OC(CN)C(O)C(O)C3NC=O)C2O)C(N)C(O)C1O` (stereo not drawn) [DC-182], the MIC was 2 to 4 µg/mL (≈ 3.11 to 6.22 µM) in [1] (setting [15]); over 32 µg/mL in assay [1] (clinical isolate AG039, AAC(6′)-I ANT(4′)-I, read-out: MIC AG039 MRSA AAC(6′)-I ANT(4′)-I); over 32 µg/mL in [1] (clinical isolate AG042, AAC(6′)-I ANT(4′)-I APH(2′), read-out: MIC AG042 MRSA AAC(6′)-I ANT(4′)-I APH(2′)); 4 to 8 µg/mL (≈ 6.22 to 12.4 µM) in [2] (setting [16]); 2 µg/mL (≈ 3.11 µM) in [2] (setting [17]); over 32 µg/mL in [3] (clinical isolate AG031, APH(3′)-II, read-out: MIC AG031 P. aer. APH(3′)-II). In addition, the MIC in assay [3] (clinical isolate AG032, APH(3′)-II, read-out: MIC AG032 P. aer. APH(3′)-II) is over 32 µg/mL; in [4] (setting [18]), 4 to 8 µg/mL (≈ 6.22 to 12.4 µM). For the same compound, the IC50 in assay [5] (setting [19]) came to 0.12 µM; in assay [6] it was 13 µM; in assay [7] (setting [20]) it was 127 µM; in assay [8] (setting [21]), 54 µM; in [9] it was 110 µM.

In the case of `CC(=O)N[C@H]1[C@@H](O[C@H]2[C@H](O[C@@H]3O[C@H](CO)[C@@H](O[C@H]4O[C@@H](CN)[C@@H](O)[C@H](O)[C@H]4N)[C@H]3O)[C@@H](O)[C@H](N)C[C@@H]2N)O[C@H](CN)[C@@H](O)[C@@H]1O` [DC-183], in [1] (clinical isolate AG038), the “MIC AG038 MRSA” value is over 32 µg/mL. Moreover, the “MIC AG039 MRSA AAC(6′)-I ANT(4′)-I” value in assay [1] (clinical isolate AG039, AAC(6′)-I ANT(4′)-I) was over 32 µg/mL. Also, the “MIC AG042 MRSA AAC(6′)-I ANT(4′)-I APH(2′)” value in [1] (clinical isolate AG042, AAC(6′)-I ANT(4′)-I APH(2′)) was over 32 µg/mL. Further, the “MIC AG001 E. coli WT” value in [2] (clinical isolate AG001, WT) is over 32 µg/mL. Further, in assay [2] (clinical isolate AG055, WT), the “MIC AG055 E. coli WT” value is over 32 µg/mL. For the same compound, the “MIC AG031 P. aer. APH(3′)-II” value in assay [3] (clinical isolate AG031, APH(3′)-II) is over 32 µg/mL. The “MIC AG032 P. aer. APH(3′)-II” value in assay [3] (clinical isolate AG032, APH(3′)-II) was over 32 µg/mL. Also, the “MIC AG003 E. coli AAC(3)-II” value in assay [4] (clinical isolate AG003, AAC(3)-II) is over 32 µg/mL. For the same compound, the IC50 in [5] (setting [19]) was 5.3 µM; in assay [6], 28 µM; in assay [7] (setting [20]), 147 µM; in [8] (setting [21]), 93 µM; in assay [9], 103 µM. In addition, the “Target specificity bacterial vs. Cytosolic” value in [7] (relative target specificity, bacterial vs. human cytosolic) is “low”. The “Target specificity bacterial vs. Mitochondrial” value in assay [8] (relative target specificity, bacterial vs. human mitochondrial) is “low”.

With `NC[C@H]1O[C@H](O[C@H]2[C@H](O[C@@H]3O[C@H](CO)[C@@H](O)[C@H]3O)[C@@H](O)[C@H](N)C[C@@H]2N)[C@H](N)[C@@H](O)[C@@H]1O` [Ribostamycin, ribostamycin, reference compound], the minimal inhibitory concentration (MIC) was over 128 µg/mL in assay [1] (read-out: MIC AG039 MRSA AAC(6′)-I ANT(4′)-I); over 128 µg/mL in assay [1] (read-out: MIC AG042 MRSA AAC(6′)-I ANT(4′)-I APH(2′)); 4 µg/mL (≈ 8.8 µM) in [1] (setting [15]); 8 µg/mL (≈ 17.6 µM) in [1] (clinical isolate AG044, read-out: MIC AG044 MRSA); 4 µg/mL (≈ 8.8 µM) in assay [2] (ATCC25922, strain AG212 E. coli (ATCC25922), read-out: MIC AG212 E. coli); 2 µg/mL (≈ 4.4 µM) in [2] (WT, Table 3 (Example 1), read-out: MIC WT). The MIC in assay [2] (WT, Table 5 (Example 3), read-out: MIC E. coli WT) was 2 µg/mL (≈ 4.4 µM); in [2] (setting [16]), 4 µg/mL (≈ 8.8 µM); in assay [2] (setting [17]), 2 µg/mL (≈ 4.4 µM); in [2] (clinical isolate AG160 WT, Table 2 (Example 4), read-out: MIC AG160 E. coli WT), 4 µg/mL (≈ 8.8 µM); in assay [2] (engineered strain pH430 WT, Table 2 (Example 4), read-out: MIC pH430 E. coli WT), 2 µg/mL (≈ 4.4 µM); in assay [3] (ATCC27853, read-out: MIC AG220 P. aerugin) it was over 128 µg/mL. For the same compound, the MIC in assay [3] (read-out: MIC AG031 P. aer. APH(3′)-II) is over 128 µg/mL; in assay [3] (read-out: MIC AG032 P. aer. APH(3′)-II), over 128 µg/mL; in assay [4] (setting [18]), 4 µg/mL (≈ 8.8 µM); in [4] (read-out: MIC AG037 E. coli APH(3′)-III) it was 32 to 64 µg/mL (≈ 70.4 to 141 µM); in assay [4] (read-out: MIC AG163 E. coli APH(3′)-I), over 128 µg/mL; in assay [4] (read-out: MIC AG166 E. coli APH(3′)-II), over 128 µg/mL. Also, the MIC is over 64 µg/mL in assay [4] (read-out: MIC APH(3)-VI); over 64 µg/mL in assay [4] (read-out: MIC APH(3′)-I); over 64 µg/mL in assay [4] (read-out: MIC APH(3′)-II); 32 to 64 µg/mL (≈ 70.4 to 141 µM) in assay [4] (read-out: MIC APH(3′)-III); 128 µg/mL (≈ 282 µM) in assay [4] (read-out: MIC E. coli AG106 AAC(2′)-Ia); 2 µg/mL (≈ 4.4 µM) in assay [4] (read-out: MIC E. coli pGB2armA armA). Besides, the MIC in assay [4] (read-out: MIC E. coli pH434 AAC(2′)-Ib) was over 128 µg/mL; in [4] (read-out: MIC pH421 E. coli APH(3′)-I), over 128 µg/mL; in assay [4] (read-out: MIC pH422 E. coli APH(3′)-II), 128 to 256 µg/mL (≈ 282 to 563 µM); in assay [4] (read-out: MIC pH423 E. coli APH(3′)-VI), over 128 µg/mL; in [10] (ATCC19977, ATCC 19977 WT, Table 5 (Example 3), read-out: MIC M. abscessus ATCC 19977 WT), 128 µg/mL (≈ 282 µM); in assay [10] (read-out: MIC M. abscessus clinical isolate), 128 µg/mL (≈ 282 µM). In addition, the MIC worked out at 32 µg/mL (≈ 70.4 µM) in assay [10] (read-out: MIC M. abscessus engineered Δeis2); 2 µg/mL (≈ 4.4 µM) in assay [11]; 4 µg/mL (≈ 8.8 µM) in [12]; 4 µg/mL (≈ 8.8 µM) in assay [13]; 8 µg/mL (≈ 17.6 µM) in assay [14] (SZ380, read-out: MIC M. smegmatis SZ380 WT, SZ380 WT, Table 5 (Example 3)); 8 µg/mL (≈ 17.6 µM) in assay [14] (SZ380, read-out: MIC SZ380 M. smegmatis, strain SZ380 Mycobacterium smegmatis). For the same compound, the IC50 worked out at 0.09 µM in assay [5] (setting [19]); 0.09 µM in assay [5] (bacterial ribosome, Table 3 (Example 1), read-out: IC50 Bac); 68 µM in assay [6]; 484 µM in assay [7] (cytosolic, Table 3 (Example 1), read-out: IC50 Cyt); 484 µM in assay [7] (setting [20]); 443 µM in [8] (mitochondrial, Table 3 (Example 1), read-out: IC50 Mit). For the same compound, the IC50 in assay [8] (setting [21]) was found to be 443 µM; in [9] it was 172 µM.

The values are drawn from patent US11466044B2 (WAYNE STATE UNIVERSITY, priority 2017, dated 2022).
